# Assays:
# Assay type in all cases: cell-based, human
# [1] = tested on: HCT 116 cells transduced with the PDE5A DD derived GFP constructs; assay: Response to Vardenafil, GFP expression by FACS in HCT116; conditions: for MFI / Stabilization ratio with Vardenafil: 48 hours, HCT116
# Method in brief: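 HCT116 cells stably carrying lentiviral AcGFP fusions of PDE5A (535-860) mutants, sorted on mCherry, got DMSO or Vardenafil (10 μM, or 0.002–30 μM) for 48 h, and GFP MFI was read by flow cytometry. Basal expression is untreated GFP over parental autofluorescence; the stabilization ratio is treated over untreated MFI.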
# [2] = tested on: HCT 116 cells transduced with the PDE5A DD derived GFP constructs; assay: Response to Tadalafil, GFP expression by FACS in HCT116; conditions: for MFI / Stabilization ratio with Tadalafil: 48 hours, HCT116
# Method in brief: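 HCT116 cells stably transduced (mCherry-sorted) with lentiviral PDE5A DD–AcGFP constructs, exposed to DMSO or Tadalafil 0.01–100 μM for 48 hrs. GFP mean fluorescence by FACS; stabilization ratio = ligand vs no-ligand signal, basal expression = no-ligand signal vs parental autofluorescence.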
# [3] = tested on: HCT116 cells transduced with the constructs; assay: Response to Sildenafil, GFP expression by flow cytometry in HCT116; conditions: for MFI / Stabilization ratio with Sildenafil: 48 hours, HCT116
# Method in brief: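 HCT116 cells stably expressing AcGFP-fused destabilizing domains from a lentiviral mCherry-marked vector (sorted on mCherry) were exposed to sildenafil at 0.01–100 μM for 48 hours. GFP mean fluorescence intensity was measured by flow cytometry.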
substance,measurement,setting,value
"PDE5AN (#53): N-terminal DD 535-860 of PDE5A (E536G, Q589R, C839S), SEQ ID NO. 67, fused to AcGFP",MFI,[1]; DMSO (no Vardenafil),14196
same,Basal (DMSO/Parental),"[1]; Table 10, GFP signal without ligand / auto fluorescence of parental HCT-116",14.0
same,Basal,"[1]; Table 15, MFI with DMSO / parental HCT116, Vardenafil experiment",7.27
same,Stabilization ratio with Vardenafil,[1]; Vardenafil 0.002 μM vs DMSO,1.0
same,MFI,[1]; Vardenafil 0.002 μM,14117
same,Stabilization ratio with Vardenafil,[1]; Vardenafil 0.005 μM vs DMSO,1.0
same,MFI,[1]; Vardenafil 0.005 μM,14485
same,Stabilization ratio with Vardenafil,[1]; Vardenafil 0.014 μM vs DMSO,1.1
same,MFI,[1]; Vardenafil 0.014 μM,15735
same,Stabilization ratio with Vardenafil,[1]; Vardenafil 0.041 μM vs DMSO,1.2
same,MFI,[1]; Vardenafil 0.041 μM,17260
same,Stabilization ratio with Vardenafil,[1]; Vardenafil 0.123 μM vs DMSO,1.8
same,MFI,[1]; Vardenafil 0.123 μM,25577
same,Stabilization ratio with Vardenafil,[1]; Vardenafil 0.370 μM vs DMSO,3.1
same,MFI,[1]; Vardenafil 0.370 μM,43744
same,Stabilization ratio with Vardenafil,[1]; Vardenafil 1.111 μM vs DMSO,5.7
same,MFI,[1]; Vardenafil 1.111 μM,81455
same,Stabilization ratio with Vardenafil,[1]; Vardenafil 3.333 μM vs DMSO,9.2
same,MFI,[1]; Vardenafil 3.333 μM,131016
same,Stabilization ratio with Vardenafil,[1]; Vardenafil 10 μM vs DMSO,12.2
same,MFI,[1]; Vardenafil 10 μM,173576
same,Stabilization ratio with Vardenafil,[1]; Vardenafil 30 μM vs DMSO,13.3
same,MFI,[1]; Vardenafil 30 μM,188519
same,MFI,[2]; DMSO (no Tadalafil),12071
same,Basal expression,"[2]; Table 21, MFI with DMSO / parental HCT116, Tadalafil experiment",9.43
same,Stabilization ratio with Tadalafil,[2]; Tadalafil 0.01 μM vs DMSO,1.0
same,MFI,[2]; Tadalafil 0.01 μM,11635
same,Stabilization ratio with Tadalafil,[2]; Tadalafil 0.02 μM vs DMSO,1.0
same,MFI,[2]; Tadalafil 0.02 μM,11690
same,Stabilization ratio with Tadalafil,[2]; Tadalafil 0.05 μM vs DMSO,1.0
same,MFI,[2]; Tadalafil 0.05 μM,12100
same,Stabilization ratio with Tadalafil,[2]; Tadalafil 0.14 μM vs DMSO,1.0
same,MFI,[2]; Tadalafil 0.14 μM,12331
same,Stabilization ratio with Tadalafil,[2]; Tadalafil 0.41 μM vs DMSO,1.1
same,MFI,[2]; Tadalafil 0.41 μM,13422
same,Stabilization ratio with Tadalafil,[2]; Tadalafil 1.23 μM vs DMSO,1.3
same,MFI,[2]; Tadalafil 1.23 μM,16255
same,Stabilization ratio with Tadalafil,[2]; Tadalafil 3.7 μM vs DMSO,2.0
same,MFI,[2]; Tadalafil 3.7 μM,24201
same,Stabilization ratio with Tadalafil,[2]; Tadalafil 11.11 μM vs DMSO,3.5
same,MFI,[2]; Tadalafil 11.11 μM,42644
same,Stabilization ratio with Tadalafil,[2]; Tadalafil 33.33 μM vs DMSO,6.6
same,MFI,[2]; Tadalafil 33.33 μM,80088
same,Stabilization ratio with Tadalafil,[2]; Tadalafil 100 μM vs DMSO,8.6
same,MFI,[2]; Tadalafil 100 μM,104032
same,MFI,[3]; DMSO (no Sildenafil),13747
same,Stabilization ratio with Sildenafil,[3]; Sildenafil 0.01 μM vs DMSO,0.9
same,MFI,[3]; Sildenafil 0.01 μM,12801
same,Stabilization ratio with Sildenafil,[3]; Sildenafil 0.02 μM vs DMSO,1.0
same,MFI,[3]; Sildenafil 0.02 μM,14045
same,Stabilization ratio with Sildenafil,[3]; Sildenafil 0.05 μM vs DMSO,1.0
same,MFI,[3]; Sildenafil 0.05 μM,13801
same,Stabilization ratio with Sildenafil,[3]; Sildenafil 0.14 μM vs DMSO,1.0
same,MFI,[3]; Sildenafil 0.14 μM,14048
same,Stabilization ratio with Sildenafil,[3]; Sildenafil 0.41 μM vs DMSO,1.2
same,MFI,[3]; Sildenafil 0.41 μM,16175
same,Stabilization ratio with Sildenafil,[3]; Sildenafil 1.23 μM vs DMSO,1.5
same,MFI,[3]; Sildenafil 1.23 μM,20410
same,Stabilization ratio with Sildenafil,[3]; Sildenafil 3.70 μM vs DMSO,2.2
same,MFI,[3]; Sildenafil 3.70 μM,30372
same,Stabilization ratio with Sildenafil,[3]; Sildenafil 11.11 μM vs DMSO,4.3
same,MFI,[3]; Sildenafil 11.11 μM,59723
same,Stabilization ratio with Sildenafil,[3]; Sildenafil 33.33 μM vs DMSO,7.2
same,MFI,[3]; Sildenafil 33.33 μM,99558
same,Stabilization ratio with Sildenafil,[3]; Sildenafil 100.00 μM vs DMSO,8.6
same,MFI,[3]; Sildenafil 100.00 μM,117792
same,Basal expression,"[3]; Table 26, MFI with DMSO / parental HCT116, Sildenafil experiment",10.7
